What was measured:
[1] = target: DNA topoisomerase II (Homo sapiens, UniProt P11388+Q02880); assay: In vitro activity against topoisomerase-2 mediated cleavage of supercoiled pBR322 plasmid DNA; format: functional
[2] = target: T1, DNA topoisomerase 1 (Homo sapiens, UniProt P11387); assay: In vitro activity against topoisomerase-1 mediated cleavage of supercoiled pBR322 plasmid DNA; format: functional
T1 sequence (P11387 whole entry): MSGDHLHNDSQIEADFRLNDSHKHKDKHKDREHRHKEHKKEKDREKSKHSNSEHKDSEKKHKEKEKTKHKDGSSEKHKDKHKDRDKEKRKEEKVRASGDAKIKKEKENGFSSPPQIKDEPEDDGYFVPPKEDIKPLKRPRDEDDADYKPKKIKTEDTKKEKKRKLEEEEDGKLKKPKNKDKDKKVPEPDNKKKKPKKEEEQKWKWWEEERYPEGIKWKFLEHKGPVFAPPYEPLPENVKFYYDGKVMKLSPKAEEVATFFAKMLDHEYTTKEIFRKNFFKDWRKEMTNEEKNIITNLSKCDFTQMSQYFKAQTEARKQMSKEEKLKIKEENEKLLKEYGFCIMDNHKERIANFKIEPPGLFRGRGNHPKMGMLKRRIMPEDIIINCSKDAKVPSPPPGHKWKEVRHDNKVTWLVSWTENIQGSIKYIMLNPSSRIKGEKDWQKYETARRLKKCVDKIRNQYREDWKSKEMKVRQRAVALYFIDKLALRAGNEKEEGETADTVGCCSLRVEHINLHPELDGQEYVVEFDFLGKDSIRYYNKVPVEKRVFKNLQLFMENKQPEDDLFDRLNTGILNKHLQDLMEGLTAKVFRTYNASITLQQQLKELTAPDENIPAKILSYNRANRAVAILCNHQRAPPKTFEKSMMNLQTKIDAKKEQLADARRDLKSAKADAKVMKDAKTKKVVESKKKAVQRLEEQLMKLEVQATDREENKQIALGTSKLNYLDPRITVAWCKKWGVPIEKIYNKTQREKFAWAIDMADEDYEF

[3] = target: Protein kinase C alpha type (Homo sapiens, UniProt P17252); assay: In vitro activity evaluated against protein kinase C (using histone II-As as a substrate)
[4] = tested on: P388; assay: In vitro cytotoxicity (CTX) against murine leukemia cells (P388) using colorimetric tetrazolium-formazan method; format: functional, cell-based; settings: Mus musculus
[5] = tested on: P388; assay: Effect on the formation of protein-DNA complex in P388 cells K+/SDS method; format: functional, Mus musculus
[6] = tested on: MKN-45; assay: In vitro cytotoxicity (CTX) against human stomach cancer cells (MKN-45) using sulforhodamine B dye-staining method; format: functional, cell-based
[7] = target: Epidermal growth factor receptor (Homo sapiens, UniProt P00533); assay: In vitro activity against Epidermal growth factor receptor (using poly(Glu4Tyr1) as a substrate)
Sequence of Epidermal growth factor receptor (P00533 whole entry): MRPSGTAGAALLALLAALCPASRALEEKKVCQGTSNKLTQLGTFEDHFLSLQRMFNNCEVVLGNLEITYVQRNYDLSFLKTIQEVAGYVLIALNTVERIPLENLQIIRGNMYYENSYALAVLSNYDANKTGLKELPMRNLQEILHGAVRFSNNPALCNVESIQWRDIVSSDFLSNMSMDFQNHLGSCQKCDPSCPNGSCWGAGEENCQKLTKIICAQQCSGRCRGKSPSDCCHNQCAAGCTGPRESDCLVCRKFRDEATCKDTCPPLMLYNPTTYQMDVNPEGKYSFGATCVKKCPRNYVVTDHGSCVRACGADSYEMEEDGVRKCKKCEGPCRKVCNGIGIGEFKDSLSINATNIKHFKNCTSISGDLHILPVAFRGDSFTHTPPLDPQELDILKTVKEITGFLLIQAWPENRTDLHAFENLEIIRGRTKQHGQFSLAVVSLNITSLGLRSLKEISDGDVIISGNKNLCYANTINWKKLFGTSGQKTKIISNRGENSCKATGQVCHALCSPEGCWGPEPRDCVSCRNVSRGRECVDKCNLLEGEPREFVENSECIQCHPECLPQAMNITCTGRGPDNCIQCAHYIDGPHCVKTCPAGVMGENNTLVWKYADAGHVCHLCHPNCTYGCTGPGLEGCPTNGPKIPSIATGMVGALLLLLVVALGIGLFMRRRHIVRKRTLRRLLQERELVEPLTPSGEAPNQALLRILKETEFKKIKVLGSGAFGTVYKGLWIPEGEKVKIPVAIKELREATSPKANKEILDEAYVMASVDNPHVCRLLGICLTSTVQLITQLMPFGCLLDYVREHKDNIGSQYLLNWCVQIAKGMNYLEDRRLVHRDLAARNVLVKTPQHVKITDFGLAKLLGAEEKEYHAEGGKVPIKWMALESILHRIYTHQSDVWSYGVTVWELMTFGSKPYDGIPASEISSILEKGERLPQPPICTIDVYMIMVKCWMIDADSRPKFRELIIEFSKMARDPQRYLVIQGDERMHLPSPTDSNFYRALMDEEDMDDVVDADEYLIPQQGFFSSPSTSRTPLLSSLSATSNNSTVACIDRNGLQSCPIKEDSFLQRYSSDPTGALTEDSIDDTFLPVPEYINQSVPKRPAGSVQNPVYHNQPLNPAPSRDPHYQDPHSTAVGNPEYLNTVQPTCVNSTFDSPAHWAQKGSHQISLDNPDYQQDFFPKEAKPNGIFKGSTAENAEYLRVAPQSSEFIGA

[8] = tested on: MKN-45; assay: Cytotoxicity against human stomach cancer cells (MKN-45) after intravenous administration (5 times/week for 2 weeks after tumor grew to 0.2 cme3 or larger); format: functional, cell-based; settings: MKN-45, 336 h
[9] = Lethal dose after intravenous administration (5 times/week for 2 weeks after tumor grew to 0.2 cme3 or larger) in mice; format: toxicity; settings: mouse, in vivo, 336 h
[10] = tested on: Mus musculus; assay: Cytotoxicity against human stomach cancer cells (MKN-45) implanted subcutaneously into a side flank of nude mice; format: functional, Cancer cell lines
[11] = Ratio of LD10 to that of GID75 was determined; expressed as safety margin; format: functional

SMILES | EC50 [1] [nM] | EC50 [2] [nM] | IC50 [3] [nM] | IC50 [4] [nM] | EC200 [5] [µM] | IC50 [6] [nM] | IC50 [7] [nM] | IC50 [8] [nM] | LD10 [9] [mg/me2] | GID75 [10] [mg/me2] | Activity [11] [Ratio]
NC(=O)NN1C(=O)c2c(c3c4cccc(O)c4n(C4OC(CO)C(O)C(O)C4O)c3c3[nH]c4c(O)cccc4c23)C1=O (stereo not given) | > 50000 | 360 | > 200000 | 35 | 2.8 | 270 | > 200000 |  |  |  | 
O=C(CO)NN1C(=O)c2c(c3c4cccc(O)c4n(C4OC(CO)C(O)C(O)C4O)c3c3[nH]c4c(O)cccc4c23)C1=O (stereo not given) | > 50000 | 2800 | > 200000 | 240 | 5 | 660 | > 200000 | 660 | > 1500 | 1200 | > 1.3
O=C(O)c1ccc(NN2C(=O)c3c(c4c5cccc(O)c5n(C5OC(CO)C(O)C(O)C5O)c4c4[nH]c5c(O)cccc5c34)C2=O)cc1 (stereo not given) | > 50000 | 160 | 23000 | 6500 | >50 | > 10000 | 90000 |  |  |  | 
CCC(=O)NN1C(=O)c2c(c3c4cccc(O)c4n(C4OC(CO)C(O)C(O)C4O)c3c3[nH]c4c(O)cccc4c23)C1=O (stereo not given) | > 50000 | 480 | 36000 | 45 | 6 | 190 | > 200000 |  |  |  | 
O=C(NN1C(=O)c2c(c3c4cccc(O)c4n(C4OC(CO)C(O)C(O)C4O)c3c3[nH]c4c(O)cccc4c23)C1=O)c1ccccc1 (stereo not given) |  | 52 | 35000 | 12 | 10 | 48 | > 200000 |  |  |  | 
O=C1c2c(c3c4cccc(O)c4n(C4OC(CO)C(O)C(O)C4O)c3c3[nH]c4c(O)cccc4c23)C(=O)N1NC(CO)CO (stereo not given) | > 50000 | 580 | > 200000 | 17 | 0.45 | 130 |  | 130 | 390 | 78 | 5
Cc1ccc(S(=O)(=O)NN2C(=O)c3c(c4c5cccc(O)c5n(C5OC(CO)C(O)C(O)C5O)c4c4[nH]c5c(O)cccc5c34)C2=O)cc1 (stereo not given) | > 50000 | 270 | 12000 |  | >10 |  | > 200000 |  |  |  | 
O=C(O)CNN1C(=O)c2c(c3c4cccc(O)c4n(C4OC(CO)C(O)C(O)C4O)c3c3[nH]c4c(O)cccc4c23)C1=O (stereo not given) | > 50000 | 9500 | 110000 | 800 | >10 | 2900 | > 200000 |  |  |  | 
CNN1C(=O)c2c(c3c4cccc(O)c4n(C4OC(CO)C(O)C(O)C4O)c3c3[nH]c4c(O)cccc4c23)C1=O (stereo not given) | > 50000 | 350 | 55000 | 75 | 2.5 | 130 | 100000 |  |  |  | 
CS(=O)(=O)NN1C(=O)c2c(c3c4cccc(O)c4n(C4OC(CO)C(O)C(O)C4O)c3c3[nH]c4c(O)cccc4c23)C1=O (stereo not given) | > 50000 | 580 | > 200000 | 60 | >10 | 270 | > 200000 |  |  |  | 
O=C1c2c(c3c4cccc(O)c4n(C4OC(CO)C(O)C(O)C4O)c3c3[nH]c4c(O)cccc4c23)C(=O)N1NCc1cccc(O)c1 (stereo not given) | > 50000 | 300 | 13000 | 7 | 0.26 | 12 | > 200000 |  |  |  | 
O=C(Nc1ccccc1)NN1C(=O)c2c(c3c4cccc(O)c4n(C4OC(CO)C(O)C(O)C4O)c3c3[nH]c4c(O)cccc4c23)C1=O (stereo not given) |  | 250 | 6800 | 250 | >10 | 250 | 95000 |  |  |  | 
O=C1c2c(c3c4cccc(O)c4n(C4OC(CO)C(O)C(O)C4O)c3c3[nH]c4c(O)cccc4c23)C(=O)N1NCC(O)CO (stereo not given) |  | 1000 | > 200000 | 29 | 0.7 | 79 | 180000 | 79 | 330 | 290 | 1.1
O=C1c2c(c3c4cccc(O)c4n(C4OC(CO)C(O)C(O)C4O)c3c3[nH]c4c(O)cccc4c23)C(=O)N1NCCO (stereo not given) | > 50000 | 430 | > 200000 | 6 | 0.3 | 3 | > 200000 | 3 | 560 | 270 | 2.1
O=C1NC(=O)c2c1c1c3cccc(O)c3[nH]c1c1[nH]c3c(O)cccc3c21 | > 50000 | > 3000 | 40000 | 2000 | 3 |  | 29000 |  |  |  | 
N#CCCNN1C(=O)c2c(c3c4cccc(O)c4n(C4OC(CO)C(O)C(O)C4O)c3c3[nH]c4c(O)cccc4c23)C1=O (stereo not given) | > 50000 | 70 | > 200000 | 6 | 0.9 | 20 | > 200000 | 20 | 640 | 200 | 3.2
CCCNN1C(=O)c2c(c3c4cccc(O)c4n(C4OC(CO)C(O)C(O)C4O)c3c3[nH]c4c(O)cccc4c23)C1=O (stereo not given) | > 50000 | 1200 | 65000 | 55 | 6.3 | 210 | 59000 |  |  |  | 
CC(=O)NN1C(=O)c2c(c3c4cccc(O)c4n(C4OC(CO)C(O)C(O)C4O)c3c3[nH]c4c(O)cccc4c23)C1=O (stereo not given) | > 50000 | 1000 | 130000 | 150 | 2 | 260 | > 200000 |  |  |  | 
CN(C)N1C(=O)c2c(c3c4cccc(O)c4n(C4OC(CO)C(O)C(O)C4O)c3c3[nH]c4c(O)cccc4c23)C1=O (stereo not given) | > 50000 | > 10000 | 59000 | 1600 | >10 | > 10000 | > 200000 |  |  |  | 
CN(C)CC(=O)NN1C(=O)c2c(c3c4cccc(O)c4n(C4OC(CO)C(O)C(O)C4O)c3c3[nH]c4c(O)cccc4c23)C1=O (stereo not given) |  | 170 | > 200000 | 260 | >10 | 460 | > 200000 |  |  |  | 
NN1C(=O)c2c(c3c4cccc(O)c4n(C4OC(CO)C(O)C(O)C4O)c3c3[nH]c4c(O)cccc4c23)C1=O (stereo not given) | > 50000 | 270 | > 200000 | 40 | 0.5 | 130 | > 200000 |  |  |  | 
CCNN1C(=O)c2c(c3c4cccc(O)c4n(C4OC(CO)C(O)C(O)C4O)c3c3[nH]c4c(O)cccc4c23)C1=O (stereo not given) | > 50000 | 3500 | > 200000 | 18 | 1.2 | 59 | > 200000 | 59 | > 1500 | >1500 | 
N#CCC(=O)NN1C(=O)c2c(c3c4cccc(O)c4n(C4OC(CO)C(O)C(O)C4O)c3c3[nH]c4c(O)cccc4c23)C1=O (stereo not given) | > 50000 | 550 | 65000 | 490 | 20 | 1900 | > 200000 |  |  |  | 
O=C1NC(=O)c2c1c1c3cccc(O)c3[nH]c1c1c2c2cccc(O)c2n1C1OC(CO)C(O)C(O)C1O (stereo not given) | > 50000 | 3000 | 3800 | 44 | 2 | 540 | 90000 |  |  |  | 
O=C(NN1C(=O)c2c(c3c4cccc(O)c4n(C4OC(CO)C(O)C(O)C4O)c3c3[nH]c4c(O)cccc4c23)C1=O)c1ccccn1 (stereo not given) | > 50000 | 90 | 41000 | 470 | >10 | 2500 | > 200000 |  |  |  | 

Reference: ChEMBL document CHEMBL1131686, “Synthesis and biological activities of topoisomerase I inhibitors, 6-N-amino analogues of NB-506” (Bioorg Med Chem Lett, 1999)
